According to US20060035810A1, “Regulation of ins(3456)p4 signalling by a reversible kinase phosphatase and methods and compositions related thereto” (priority 2002, published 2006):

What was measured:
Assay type in all cases: cell-based, mouse
[1] = test system: insulin granules in pancreatic β-cells; assay: Insulin granule acidification, LSG fluorescence with patch-clamp and confocal imaging
Procedure: FIG. 6. Ins(3,4,5,6)P4 inhibits acidification of insulin granules in pancreatic β-cells. FIG. 6A, Representative time-courses for intragranular acidification, monitored by increased fluorescence of LSG before and after establishment of the standard whole-cell configuration (see arrow) and the effect of perfusion of intracellular medium (containing 0.4 μM [Ca^2+]free except where “no calcium” is indicated; see Methods) plus either 0 (“control”), 1 or 10 μM Ins(3,4,5,6)P4. FIG. 6B, Mean (±SE) fluorescence changes (n-5-11), during the 60 s that followed establishment of the standard whole-cell configuration, for cells perfused with inositol phosphates as indicated at the base of the bar graph. Where indicated, DIDS (100 μM) were added to the bath solution 30 min prior to patching the cells. Statistical significance was evaluated by Student's unpaired t-test (* P<0.01).
The inositol phosphates used in this study were all purchased from CellSignals Inc (Lexington, Ky.). Insulin granule pH were monitored by combining the patch-clamp technique with confocal imaging. Pancreatic β-cells, isolated and cultured on glass coverslips for 2-24 h, were voltage clamped at −70 mV, as previously described (B9). LysoSensor-Green™ DND-189 (1 μM; Molecular Probes, Leiden, The Netherlands) was added during the last 30 min of cell culture and was also included in the extracellular buffer (B9) that continuously perfused the experimental chamber. All LSG experiments were performed at 20° C. to prevent exocytosis that otherwise interfered with the optical measurements (15). LSG fluorescence was excited using the 488 nm-line of a Zeiss 510 confocal microscope. The emitted light was collected with a 63×/1.3 NA oil objective and a >505 nm filter. Laser scanning was performed with low pixel resolution (128×128) and with 6 s intervals to minimize photo-bleaching. After gigaseal formation, it was ascertained that LSG fluorescence was stable for at least 30 s before the experiment commenced. The intracellular electrode solution contained: 125 mM K-glutamate, 10 mM KCl, 1 0 mM NaCl, 1 mM MgCl2, 5 mM HEPES, 3 mM Mg-ATP, 0.1 mM cAMP, 10 mM EGTA and 7 mM CaCl2 (˜0.4 μM free [Ca^2+]I; pH 7.2 with KOH). In some experiments, marked “no calcium”, there was no added Ca^2+, and the concentration of EGTA was 50 μM. Whole-cell capacitance measurements (at 33° C.) were made with the cells clamped at −70 mV, and the standard whole-cell configuration was established at t=0. Capacitance recordings were made using an EPC-7 patch-clamp amplifier equipped with the software Pulse (version 8.4 and later) and the X-chart extension (HEKA Elektronik, Lambrecht/Pfalz, Germany) (B9).

[2] = test system: insulin granules in pancreatic β-cells; assay: CCCP-mediated de-acidification of insulin granules, LSG fluorescence
Procedure: FIG. 7A, Representative confocal images of LSG fluorescence immediately before (zero) and 60 s after perfusion of cells with intracellular buffer supplemented with 100 μM of the protonophore, CCCP, in the absence or presence of 10 μM Ins(3,4,5,6)P4. FIG. 7B, Representative time-courses for changes in LSG-fluorescence ([F/F0] as % of zero time) immediately after establishing a standard whole-cell configuration as in panel A, with intracellular medium (containing 0.4 μM [Ca^2+]free except where “no calcium” is indicated; see Methods) plus 100 μM CCCP, together with either 0 (“control”) or 10 μM Ins(3,4,5,6)P4. FIG. 7C, Mean (±SE) fluorescence changes (n=4-6), during the 60 s that followed establishment of the standard whole-cell configuration, for cells perfused with intracellular medium supplemented with inositol phosphates as indicated at the base of the bar graph ([…]).
The inositol phosphates used in this study were all purchased from CellSignals Inc (Lexington, Ky.). Insulin granule pH were monitored by combining the patch-clamp technique with confocal imaging. Pancreatic β-cells, isolated and cultured on glass coverslips for 2-24 h, were voltage clamped at −70 mV, as previously described (B9). LysoSensor-Green™ DND-189 (1 μM; Molecular Probes, Leiden, The Netherlands) was added during the last 30 min of cell culture and was also included in the extracellular buffer (B9) that continuously perfused the experimental chamber. All LSG experiments were performed at 20° C. to prevent exocytosis that otherwise interfered with the optical measurements (15). LSG fluorescence was excited using the 488 nm-line of a Zeiss 510 confocal microscope. The emitted light was collected with a 63×/1.3 NA oil objective and a >505 nm filter. Laser scanning was performed with low pixel resolution (128×128) and with 6 s intervals to minimize photo-bleaching. After gigaseal formation, it was ascertained that LSG fluorescence was stable for at least 30 s before the experiment commenced. The intracellular electrode solution contained: 125 mM K-glutamate, 10 mM KCl, 1 0 mM NaCl, 1 mM MgCl2, 5 mM HEPES, 3 mM Mg-ATP, 0.1 mM cAMP, 10 mM EGTA and 7 mM CaCl2 (˜0.4 μM free [Ca^2+]I; pH 7.2 with KOH). In some experiments, marked “no calcium”, there was no added Ca^2+, and the concentration of EGTA was 50 μM. Whole-cell capacitance measurements (at 33° C.) were made with the cells clamped at −70 mV, and the standard whole-cell configuration was established at t=0. Capacitance recordings were made using an EPC-7 patch-clamp amplifier equipped with the software Pulse (version 8.4 and later) and the X-chart extension (HEKA Elektronik, Lambrecht/Pfalz, Germany) (B9). […]

pancreatic β-cells = assay: Ca2+-induced exocytosis, whole-cell capacitance recordings
Procedure: FIG. 8A, Representative increases in cell capacitance (ΔC), reflecting exocytosis (as is described in Barg et al., J. Cell Sci 114: 2145-2154 (2001)), elicited by intracellular perfusion with intracellular solution (0.4 μM [Ca^2+]free), containing either 0 (“control”) or 10 μM Ins(3,4,5,6)P4. FIG. 8B, Average rates of capacitance increase (ΔC/Δt) during the first minute of recording, as described for FIG. 8A, in 5-17 experiments. FIG. 8C, Representative increases in ΔC, measured under the same conditions as in FIG. 8A, except that the [Ca^2+]free was 1.5 μM. FIG. 8D, Average rates of capacitance increase (ΔC/Δt) during the first minute of recording, as described for FIG. 8C, in 6-11 experiments.
The inositol phosphates used in this study were all purchased from CellSignals Inc (Lexington, Ky.). Insulin granule pH were monitored by combining the patch-clamp technique with confocal imaging. Pancreatic β-cells, isolated and cultured on glass coverslips for 2-24 h, were voltage clamped at −70 mV, as previously described (B9). LysoSensor-Green™ DND-189 (1 μM; Molecular Probes, Leiden, The Netherlands) was added during the last 30 min of cell culture and was also included in the extracellular buffer (B9) that continuously perfused the experimental chamber. All LSG experiments were performed at 20° C. to prevent exocytosis that otherwise interfered with the optical measurements (15). LSG fluorescence was excited using the 488 nm-line of a Zeiss 510 confocal microscope. The emitted light was collected with a 63×/1.3 NA oil objective and a >505 nm filter. Laser scanning was performed with low pixel resolution (128×128) and with 6 s intervals to minimize photo-bleaching. After gigaseal formation, it was ascertained that LSG fluorescence was stable for at least 30 s before the experiment commenced. The intracellular electrode solution contained: 125 mM K-glutamate, 10 mM KCl, 1 0 mM NaCl, 1 mM MgCl2, 5 mM HEPES, 3 mM Mg-ATP, 0.1 mM cAMP, 10 mM EGTA and 7 mM CaCl2 (˜0.4 μM free [Ca^2+]I; pH 7.2 with KOH). In some experiments, marked “no calcium”, there was no added Ca^2+, and the concentration of EGTA was 50 μM. Whole-cell capacitance measurements (at 33° C.) were made with the cells clamped at −70 mV, and the standard whole-cell configuration was established at t=0. […]
The degree of insulin granule acidification in pancreatic β-cells has been proposed to affect their fusogenic potential, thereby influencing the rate of insulin secretion by exocytosis (B9;B16). So we next investigated if the interaction of Ins(3,4,5,6)P4 with insulin granule Cl^− channels affected exocytosis, which we recorded by monitoring capacitance of β-cells with the whole-cell patch-clamp technique (B16). […]

SMILES	effect on vesicle acidification ([1]; 100 μM)	effect on rate of CCCP-promoted H+ efflux out of the granule ([2]; 100 μM, 100 μM CCCP)	effect on exocytosis (pancreatic β-cells; 100 μM, 0.4 μM [Ca2+]free)	effect on granule acidification ([1]; 1 μM (resting level))	reduction of the rate of acidification of the granular interior ([1]; 10 μM perfused into the cell, 0.4 μM [Ca2+]free)	effect on CCCP-induced collapse of the pH gradient ([2]; 1 μM (resting level))	effect on CCCP-induced H+ flux ([2]; 10 μM, 100 μM CCCP)	effect on exocytosis (pancreatic β-cells; 1 μM, 0.4 μM [Ca2+]free)	effect on rate of exocytosis (pancreatic β-cells; 1.5 μM [Ca2+]free)	inhibition at 10 µM (pancreatic β-cells; Mus musculus, 10 μM, 0.4 μM [Ca2+]free) [%]
O=P(O)(O)OC1[C@@H](OP(=O)(O)O)[C@H](OP(=O)(O)O)C(O)[C@H](OP(=O)(O)O)[C@H]1OP(=O)(O)O (stereo partly shown) [Ins(1,3,4,5,6)P5, inositol 1,3,4,5,6-pentakisphosphate]	neither 100 μM Ins(1,4,5,6)P4 nor 100 μM Ins(1,3,4,5,6)P5 affected	no effect	no effect	–	–	–	–	–	–	–
O=P(O)(O)OC1C(O)C(O)C(OP(=O)(O)O)C(OP(=O)(O)O)C1OP(=O)(O)O (stereo not shown) [Ins(3,4,5,6)P4, inositol 3,4,5,6-tetrakisphosphate]	–	–	–	ineffective	approximately 65%	failed to affect	inhibitory effect	ineffective	did not affect	~50
